Laboratory results from ChEMBL document CHEMBL1201862, “PubChem BioAssay data set” (2004).
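In this assay, cells in 96-well plates receive the compound at five concentrations for 48 hours. Endpoints are linearly interpolated between the surrounding concentrations. GI50: concentration for 50% inhibition of growth.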 Activity calls are given as the source filed them. Rule as the data show it: active = GI50 up to about 1.1 µM and inactive = higher.

Key:
Test in all cases: NCI-60 cell line screen, 48 h
CCRF-CEM = tested on: CCRF-CEM
KM12 = tested on: KM12
SK-MEL-28 = tested on: SK-MEL-28
SF-268 = tested on: SF-268
SR = tested on: SR
SK-MEL-5 = tested on: SK-MEL-5
HOP-92 = tested on: HOP-92
786-0 = tested on: 786-0
U-251 = tested on: U-251
A549 = tested on: A549
SN12C = tested on: SN12C
OVCAR-4 = tested on: OVCAR-4
T47D = tested on: T47D
SF-295 = tested on: SF-295
MDA-N = tested on: MDA-N
MCF7 = tested on: MCF7
Malme-3M = tested on: Malme-3M
DU-145 = tested on: DU-145
OVCAR-8 = tested on: OVCAR-8
HOP-62 = tested on: HOP-62
SK-OV-3 = tested on: SK-OV-3
MDA-MB-231 = tested on: MDA-MB-231
RPMI-8226 = tested on: RPMI-8226
TK-10 = tested on: TK-10
RXF 393 = tested on: RXF 393
SK-MEL-2 = tested on: SK-MEL-2
SNB-19 = tested on: SNB-19
Hs-578T = tested on: Hs-578T
K562 = tested on: K562
HCC 2998 = tested on: HCC 2998
A498 = tested on: A498
MDA-MB-435 = tested on: MDA-MB-435
UACC-257 = tested on: UACC-257
M14 = tested on: M14
EKVX = tested on: EKVX
NCI/ADR-RES = tested on: NCI/ADR-RES
HT-29 = tested on: HT-29
NCI-H522 = tested on: NCI-H522
SNB-75 = tested on: SNB-75
CAKI-1 = tested on: CAKI-1
UACC-62 = tested on: UACC-62
COLO 205 = tested on: COLO 205
OVCAR-5 = tested on: OVCAR-5
NCI-H226 = tested on: NCI-H226
PC-3 = tested on: PC-3
LOX IMVI = tested on: LOX IMVI
IGROV-1 = tested on: IGROV-1
HCT-15 = tested on: HCT-15
SF-539 = tested on: SF-539
NCI-H23 = tested on: NCI-H23
OVCAR-3 = tested on: OVCAR-3
ACHN = tested on: ACHN
SW-620 = tested on: SW-620
BT-549 = tested on: BT-549
HCT-116 = tested on: HCT-116
NCI-H460 = tested on: NCI-H460
UO-31 = tested on: UO-31
MOLT-4 = tested on: MOLT-4

SMILES: CNC(=O)Nc1cc2c3c(c1)CCCN3CCC2
- GI50 (CCRF-CEM): > 10 µM (inactive)
- GI50 (KM12): > 10 µM (inactive)
- GI50 (SK-MEL-28): > 10 µM (inactive)
- GI50 (SF-268): > 10 µM (inactive)
- GI50 (SR): > 10 µM (inactive)
- GI50 (SK-MEL-5): > 10 µM (inactive)
- GI50 (HOP-92): > 10 µM (inactive)
- GI50 (786-0): > 10 µM (inactive)
- GI50 (U-251): > 10 µM (inactive)
- GI50 (A549): > 10 µM (inactive)
- GI50 (SN12C): > 10 µM (inactive)
- GI50 (OVCAR-4): > 10 µM (inactive)
- GI50 (T47D): > 10 µM (inactive)
- GI50 (SF-295): > 10 µM (inactive)
- GI50 (MDA-N): > 10 µM (inactive)
- GI50 (MCF7): > 10 µM (inactive)
- GI50 (Malme-3M): > 10 µM (inactive)
- GI50 (DU-145): > 10 µM (inactive)
- GI50 (OVCAR-8): > 10 µM (inactive)
- GI50 (HOP-62): > 10 µM (inactive)
- GI50 (SK-OV-3): > 10 µM (inactive)
- GI50 (MDA-MB-231): > 10 µM (inactive)
- GI50 (RPMI-8226): > 10 µM (inactive)
- GI50 (TK-10): > 10 µM (inactive)
- GI50 (RXF 393): > 10 µM (inactive)
- GI50 (SK-MEL-2): > 10 µM (inactive)
- GI50 (SNB-19): > 10 µM (inactive)
- GI50 (Hs-578T): > 10 µM (inactive)
- GI50 (K562): > 10 µM (inactive)
- GI50 (HCC 2998): > 10 µM (inactive)
- GI50 (A498): > 10 µM (inactive)
- GI50 (MDA-MB-435): > 10 µM (inactive)
- GI50 (UACC-257): > 10 µM (inactive)
- GI50 (M14): > 10 µM (inactive)
- GI50 (EKVX): > 10 µM (inactive)
- GI50 (NCI/ADR-RES): > 10 µM (inactive)
- GI50 (HT-29): > 10 µM (inactive)
- GI50 (NCI-H522): > 10 µM (inactive)
- GI50 (SNB-75): > 10 µM (inactive)
- GI50 (CAKI-1): > 10 µM (inactive)
- GI50 (UACC-62): > 10 µM (inactive)
- GI50 (COLO 205): > 10 µM (inactive)
- GI50 (OVCAR-5): > 10 µM (inactive)
- GI50 (NCI-H226): > 10 µM (inactive)
- GI50 (PC-3): > 10 µM (inactive)
- GI50 (LOX IMVI): > 10 µM (inactive)
- GI50 (IGROV-1): > 10 µM (inactive)
- GI50 (HCT-15): > 10 µM
- GI50 (SF-539): > 10 µM (inactive)
- GI50 (NCI-H23): > 10 µM (inactive)
- GI50 (OVCAR-3): > 10 µM (inactive)
- GI50 (ACHN): > 10 µM (inactive)
- GI50 (SW-620): > 10 µM (inactive)
- GI50 (BT-549): > 10 µM (inactive)
- GI50 (HCT-116): > 10 µM (inactive)
- GI50 (NCI-H460): > 10 µM (inactive)

SMILES: COC(=O)c1cc(/C=C\c2cc(OC)ccc2OC)ccc1OC
- GI50 (CCRF-CEM): 55.1 µM (inactive)
- GI50 (KM12): 29.2 µM (inactive)
- GI50 (SK-MEL-28): 18.4 µM (inactive)
- GI50 (SF-268): 32.7 µM (inactive)
- GI50 (SR): 10.4 µM (inactive)
- GI50 (SK-MEL-5): 17.7 µM (inactive)
- GI50 (786-0): 35.1 µM (inactive)
- GI50 (U-251): 32.3 µM (inactive)
- GI50 (A549): 32.1 µM (inactive)
- GI50 (SN12C): 38.2 µM (inactive)
- GI50 (UO-31): 30.3 µM (inactive)
- GI50 (OVCAR-4): 33.6 µM (inactive)
- GI50 (T47D): 18.7 µM (inactive)
- GI50 (SF-295): 30.8 µM (inactive)
- GI50 (MDA-N): 17.7 µM (inactive)
- GI50 (MCF7): 25.6 µM (inactive)
- GI50 (DU-145): 26.9 µM (inactive)
- GI50 (OVCAR-8): 36.4 µM (inactive)
- GI50 (HOP-62): 25.6 µM (inactive)
- GI50 (SK-OV-3): 37.3 µM (inactive)
- GI50 (MDA-MB-231): 34.4 µM (inactive)
- GI50 (RPMI-8226): 18.4 µM (inactive)
- GI50 (TK-10): 50.8 µM (inactive)
- GI50 (SK-MEL-2): 24.9 µM (inactive)
- GI50 (SNB-19): 34 µM (inactive)
- GI50 (Hs-578T): 40.4 µM (inactive)
- GI50 (K562): 6.5 µM (inactive)
- GI50 (HCC 2998): 22.4 µM (inactive)
- GI50 (A498): 28.7 µM (inactive)
- GI50 (MDA-MB-435): 8.81 µM (inactive)
- GI50 (UACC-257): 30.5 µM (inactive)
- GI50 (M14): 26.1 µM (inactive)
- GI50 (EKVX): 26.1 µM (inactive)
- GI50 (NCI/ADR-RES): 37.3 µM (inactive)
- GI50 (HT-29): 25.6 µM (inactive)
- GI50 (NCI-H522): 19.9 µM (inactive)
- GI50 (MOLT-4): 6.75 µM (inactive)
- GI50 (CAKI-1): 33.3 µM (inactive)
- GI50 (UACC-62): 22.6 µM (inactive)
- GI50 (COLO 205): 21.2 µM (inactive)
- GI50 (OVCAR-5): 39.4 µM (inactive)
- GI50 (PC-3): 26.1 µM (inactive)
- GI50 (LOX IMVI): 24 µM (inactive)
- GI50 (IGROV-1): 13.7 µM (inactive)
- GI50 (HCT-15): 33.2 µM
- GI50 (SF-539): 38.5 µM (inactive)
- GI50 (NCI-H23): 43.3 µM (inactive)
- GI50 (OVCAR-3): 24.4 µM (inactive)
- GI50 (ACHN): 32.1 µM (inactive)
- GI50 (SW-620): 38.9 µM (inactive)
- GI50 (BT-549): 31.2 µM (inactive)
- GI50 (HCT-116): 32.4 µM (inactive)
- GI50 (NCI-H460): 51.2 µM (inactive)
